The source of these data is ChEMBL document CHEMBL1150924, “Triterpenes and saponins from Rudgea viburnioides” (J Nat Prod, 1998).

The source made the active and inactive calls. The rule behind the calls is not given here.

Common to all, as to format: functional, organism-based
The test system of assay [1] is Cladosporium cladosporioides. The assay can be described thus: Antifungal activity against Cladosporium cladosporioides at 5 ug by TLC bioassay.
The test system of assay [2] is Cladosporium cladosporioides. The assay can be described thus: Antifungal activity against Cladosporium cladosporioides at 1 ug by TLC bioassay.
Assay [3] relates to Cladosporium cladosporioides. The assay can be described thus: Antifungal activity against Cladosporium cladosporioides at 50 ug by TLC bioassay.

NYSTATIN: the outcome in assay [1] was Active.
`Clc1ccc(COC(Cn2ccnc2)c2ccc(Cl)cc2Cl)c(Cl)c1` (stereo not drawn): the result in assay [2] was Active.
Take `C[C@@H]1CC[C@]2(C)CC[C@]3(C)C(=CC[C@@H]4[C@@]5(C)C[C@@H](O)[C@H](O)C(CO)(CO)[C@@H]5CC[C@]43C)[C@@H]2[C@]1(C)O`: the result in assay [3] was Active.
